# System: Vaccinia virus
# Assay: Antiviral activity against Vaccinia virus Lederle Chorioallantoic infected in human Hep2 cells assessed as inhibition of virus-induced cytopathogenic effect
# Assay type: functional, Orthopoxvirus vaccinia, HEp-2
smiles,measurement,value
Nc1ncnc2c1ncn2[C@@H]1C[C@H](CO)[C@@H](O)[C@@H]1O (racemic),MED50,9 µg/mL

# From ChEMBL document CHEMBL3244025, “Carbocyclic arabinosyladenine, an adenosine deaminase resistant antiviral agent” (J Med Chem, 1977)
